Test results taken from paper PMC11201828, “A Novel Dimeric Short Peptide Derived from α-Defensin-Related Rattusin with Improved Antimicrobial and DNA-Binding Activities” (Biomolecules, 2024).
Values after ≈ are worked out from the molar mass of the structure shown. Read-outs that look alike come from different tables or passages of the source. Positions of bridges follow the written chain, without caps; N, C: chain ends. Residues, ends and D or L forms follow the SMILES beside them. Chains are numbered I, II in the order given. No end group written: not given here.

Tests used:
[1] = tested on: S. aureus cytoplasmic membrane; assay: Membrane depolarization assay, DiSC3-(5) dye; assay type: cell-based, Staphylococcus aureus; conditions: intact S. aureus; 32 µM F2, 4 µM melittin, 16 µM buforin-2; peptide added after 300 s; Figure 2
Procedure: The cytoplasmic membrane depolarization activity of the peptides was assessed using the membrane-potential-sensitive dye DiSC3-(5), following methodologies previously described in the literature. Staphylococcus aureus was cultured in Luria–Bertani (LB) broth at 37 °C until reaching an optical density (O.D.) at 600 nm of 0.3–0.4, indicative of mid-logarithmic phase growth. The cells were then washed with a buffer containing 20 mM glucose and 5 mM HEPES, and the cell suspension was diluted to an O.D. 600 of 0.05 in the same buffer. Potassium chloride (KCl) was added to achieve a final concentration of 100 mM to equilibrate potassium ion levels. The concentrations used for each peptide in our membrane depolarization assays were based on their respective MICs: 32 µM for F2, 4 µM for Melittin, and 16 µM for Buferin-2.
Fluorescence was monitored using an F-4500 FL fluorescence spectrophotometer (Shimadzu, Kyoto, Japan) with excitation and emission wavelengths set at 622 nm and 670 nm, respectively. Melittin, known for its membrane-disrupting properties, served as a positive control, while buforin-2, which translocates across membranes without causing depolarization, acted as a negative control. Both melittin and buforin-2 were tested at concentrations twice their minimal inhibitory concentration (MIC) levels.

[2] = tested on: plasmid DNA (pHIS2); assay: DNA-binding gel retardation assay; conditions: plasmid pHIS2 145 μg/mL, 37 °C, 1 h, 1% agarose gel; Figure 5
Procedure: We evaluated the DNA-binding ability of F2 and F2 (C4S) monomeric peptides using gel retardation experiments. The concentration of plasmid DNA (pHIS2) was fixed at 145 μg/mL. The peptide was serially diluted in a binding buffer consisting of 10 mM Tris-HCl (pH 8.0), 5% glucose, 50 μg/mL BSA, 1 mM EDTA, and 20 mM KCl. This solution was then mixed with the DNA and incubated at 37 °C for 1 h. After incubation, the DNA–peptide mixture was stained with DNA gel loading dye. The samples were analyzed using 1% agarose gel electrophoresis in 0.5× TAE buffer. Plasmid bands were detected with a UV illuminator (Bio-Rad, Hercules, CA, USA).

[3] = tested on: E. coli ML-35; assay: ONPG hydrolysis assay (inner membrane permeability); assay type: cell-based, Escherichia coli; conditions: 32 µM F2, 4 µM melittin, 16 µM buforin-2, Figure 4
Procedure: The internal membrane permeability was assessed using the ONPG hydrolysis assay, as described previously. E. coli ML-35p, which constitutively expresses cytoplasmic β-galactosidase and periplasmic β-lactamase, is resistant to ampicillin and deficient in lactose permease. E. coli ML-35 was incubated in LB broth containing ampicillin at 37 °C until the optical density (O.D.) at 600 nm reached 1.0. The cells were then washed with a buffer consisting of 97% 1× PBS and 3% LB and diluted to an O.D. 600 of 0.4 in the same buffer. A mixture of 50 μL of serially diluted peptide and 20 μL of dye (ONPG, final concentration 3 mM) was added to 100 μL of the bacterial suspension in a sterilized 96-well plate. Melittin served as a positive control, while buforin-2 was used as a negative control. The hydrolysis of ONPG was measured using a PHOMO Elisa reader (Autobio, Zhengzhou, China) at 405 nm for each time period.

[4] = tested on: S. aureus cell membranes; assay: SYTOX Green uptake assay; assay type: cell-based, Staphylococcus aureus; conditions: 32 µM F2, 4 µM melittin, 16 µM buforin-2, Figure 3
Procedure: The membrane permeabilization activity of the peptides was determined using the SYTOX Green uptake assay, as described previously. S. aureus was cultured in LB broth at 37 °C until it reached an optical density (O.D.) at 600 nm of 0.4, indicative of the mid-logarithmic phase. The cells were then washed and diluted to an O.D. 600 of 0.05 using 1× PBS buffer. The dye (SYTOX Green nucleic acid stain) was added to the bacterial suspension at a concentration of […], and the mixture was incubated at 4 °C for 18 h with agitation in the dark. The SYTOX Green-treated bacteria were placed in a quartz cell, where they were simultaneously exposed to the positive control melittin (2× MIC), the negative control buforin-2 (2× MIC), and the F2 dimer (2× MIC). An F-4500 FL fluorescence spectrophotometer (Shimadzu, Kyoto, Japan) was used to monitor fluorescence (excitation 485 nm, emission 520 nm).

[5] = tested on: Escherichia coli; assay type: cell-based; conditions: 24 h
Procedure: (§1) The minimal inhibitory concentrations (MICs) of the peptides were determined following the broth microdilution method recommended by the Clinical and Laboratory Standards Institute (CLSI). Briefly, bacteria in their mid-logarithmic growth phase were diluted in Mueller–Hinton broth (MHB) (Difco, Franklin Lakes, NJ, USA) and aliquoted into a 96-well microtiter plate at a density of 4 × 10^6 CFU/well. The assay included both Gram-negative bacteria (Escherichia coli, Salmonella typhimurium, and Pseudomonas aeruginosa) and Gram-positive bacteria (Bacillus subtilis, Staphylococcus aureus, and Staphylococcus epidermidis), as well as methicillin-resistant Staphylococcus aureus strains (MRSA: CCARM 3089, CCARM 3090, CCARM 3095). The samples were subjected to a two-fold serial dilution before being added to the wells, and the plate was incubated at 37 °C for 24 h. The MIC was defined as the lowest peptide concentration that prevented visible bacterial growth. All experiments were conducted in triplicate and included appropriate growth and sterility controls.

[6] = tested on: bacterial strains; assay type: cell-based; conditions: strain not given; see Tables 1 and 2
Procedure: as §1

[7] = tested on: Staphylococcus aureus; assay type: cell-based; conditions: 24 h
Procedure: as §1

[8] = tested on: Pseudomonas aeruginosa; assay type: cell-based; conditions: 24 h
Procedure: as §1

[9] = tested on: Salmonella typhimurium; assay type: cell-based; conditions: 24 h
Procedure: as §1

[10] = tested on: Staphylococcus epidermidis; assay type: cell-based; conditions: 24 h
Procedure: as §1

[11] = tested on: Bacillus subtilis; assay type: cell-based; conditions: 24 h
Procedure: as §1

[12] = tested on: MRSA CCARM 3089; assay type: cell-based, methicillin-resistant Staphylococcus aureus; conditions: CCARM 3089, 24 h
Procedure: as §1

[13] = tested on: MRSA CCARM 3095; assay type: cell-based, methicillin-resistant Staphylococcus aureus; conditions: CCARM 3095, 24 h
Procedure: as §1

[14] = tested on: MRSA CCARM 3090; assay type: cell-based, methicillin-resistant Staphylococcus aureus; conditions: CCARM 3090, 24 h
Procedure: as §1

Molecule | MIC [5] | MIC [6] | MIC [7] | MIC [12] | MIC [13] | MIC [14] | also measured
Buforin-2 | – | – | – | – | – | – | cytoplasmic membrane depolarization (DiSC3-(5) fluorescence) [1]: failed to induce any change in membrane potential; peptide concentration giving DNA band retardation [2]: 2 µM; ONPG hydrolysis (absorbance at 405 nm) [3]: did not alter the absorbance; SYTOX Green uptake (fluorescence intensity) [4]: did not show a similar increase in fluorescence intensity
IRLSRSTYAS-NH2 [F3] | >590 µg/mL | > 590 µg/mL | >590 µg/mL | – | – | – | –
CC[C@H](C)[C@H](NC(=O)CN)C(=O)NCC(=O)N[C@@H](C)C(=O)N[C@H](C(=O)N[C@@H](CC(C)C)C(=O)N[C@@H](CCCCN)C(=O)N[C@H](C(=O)N[C@@H](CC(C)C)C(=O)N[C@H](C(=O)N[C@H](C(=O)NCC(=O)N[C@@H](CC(C)C)C(=O)N1CCC[C@H]1C(=O)N[C@@H](C)C(=O)N[C@@H](CC(C)C)C(=O)N[C@H](C(=O)N[C@@H](CO)C(=O)N[C@@H](Cc1c[nH]c2ccccc12)C(=O)N[C@H](C(=O)N[C@@H](CCCCN)C(=O)N[C@@H](CCCNC(=N)N)C(=O)N[C@@H](CCCCN)C(=O)N[C@@H](CCCNC(=N)N)C(=O)N[C@@H](CCC(N)=O)C(=O)N[C@@H](CCC(N)=O)C(N)=O)[C@@H](C)CC)[C@@H](C)CC)[C@@H](C)O)[C@@H](C)O)C(C)C)C(C)C [Melittin] | – | – | – | – | – | – | cytoplasmic membrane depolarization (DiSC3-(5) fluorescence) [1]: complete depolarization; ONPG hydrolysis (absorbance at 405 nm) [3]: change in absorbance; SYTOX Green uptake (fluorescence intensity) [4]: significant increase in fluorescence intensity
RRVSRNT-NH2 [F2 (C15S)] | – | > 227 µg/mL | – | >114 µg/mL | >114 µg/mL | >114 µg/mL | MIC ([5]; Escherichia coli, broth microdilution, MHB, 4 × 10^6 CFU/well, 37 °C, triplicate, no deviations): >227 µg/mL; MIC ([8]; Pseudomonas aeruginosa, broth microdilution, MHB, 37 °C, triplicate): >227 µg/mL; MIC ([9]; Salmonella typhimurium, broth microdilution, MHB, 37 °C, triplicate): >227 µg/mL; MIC ([10]; Staphylococcus epidermidis, broth microdilution, MHB, 37 °C, triplicate): >227 µg/mL; MIC ([11]; Bacillus subtilis, broth microdilution, MHB, 37 °C, triplicate): >227 µg/mL; MIC ([7]; Staphylococcus aureus, broth microdilution, MHB, 37 °C, triplicate): >227 µg/mL; peptide concentration giving DNA band retardation [2]: > 16 µM
LRVRRTLQ-NH2 [F1] | 67 µg/mL | – | >500 µg/mL | – | – | – | –
CC(C)[C@@H]1NC(=O)[C@H](CCCNC(=N)N)NC(=O)[C@H](CCCNC(=N)N)NC(=O)[C@H]([C@@H](C)O)NC(=O)[C@H](CC(N)=O)NC(=O)[C@H](CCCNC(=N)N)NC(=O)[C@@H](NC(=O)[C@@H](NC(=O)[C@H](CCCNC(=N)N)NC(=O)[C@@H](N)CCCNC(=N)N)C(C)C)CSSC[C@@H](C(=O)N[C@@H](CCCNC(=N)N)C(=O)N[C@@H](CC(N)=O)C(=O)N[C@H](C(N)=O)[C@@H](C)O)NC1=O [F2-AH] (H-RRVCRNTRRVCRNT-NH2; disulfide 4-11; N-terminus assumed) | 15 µg/mL (≈ 8.39 µM) | 15 µg/mL (≈ 8.39 µM) | 29 µg/mL (≈ 16.2 µM) | 29 µg/mL (≈ 16.2 µM) | 58 µg/mL (≈ 32.5 µM) | 29 µg/mL (≈ 16.2 µM) | MIC [8]: 15 µg/mL (≈ 8.39 µM); MIC ([9]; murium): 15 µg/mL (≈ 8.39 µM); MIC [10]: 15 µg/mL (≈ 8.39 µM); MIC [11]: 29 µg/mL (≈ 16.2 µM)
CC[C@H](C)[C@H](NC(=O)[C@@H]1CSSC[C@H](NC(=O)[C@H](CCC(N)=O)NC(=O)[C@@H](N)CC(C)C)C(=O)N[C@@H](CO)C(=O)N[C@H]2CSSC[C@H](NC(=O)[C@H]([C@@H](C)O)NC(=O)[C@H](CC(N)=O)NC(=O)[C@H](CCCNC(=N)N)NC(=O)[C@@H]3CSSC[C@H](NC(=O)[C@H](C(C)C)NC(=O)[C@H](CCCNC(=N)N)NC(=O)[C@H](CCCNC(=N)N)NC2=O)C(=O)N[C@@H](CCCNC(=N)N)C(=O)N[C@@H](CC(N)=O)C(=O)N[C@@H]([C@@H](C)O)C(=O)N[C@H]2CSSC[C@H](NC(=O)[C@H](CO)NC(=O)[C@@H](NC(=O)[C@H](CCC(N)=O)NC(=O)[C@@H](N)CC(C)C)CSSC[C@@H](C(=O)N[C@H](C(=O)N[C@@H](CCCNC(=N)N)C(N)=O)[C@@H](C)CC)NC(=O)[C@H](CO)NC2=O)C(=O)N[C@@H](CCCNC(=N)N)C(=O)N[C@@H](CCCNC(=N)N)C(=O)N[C@@H](C(C)C)C(=O)N3)C(=O)N[C@@H](CO)C(=O)N1)C(=O)N[C@@H](CCCNC(=N)N)C(N)=O [F4] (I: H-LQCSCRRVCRNTCSCIR-NH2 / II: H-LQCSCRRVCRNTCSCIR-NH2; disulfide I:3-II:15, I:5-II:13, I:9-II:9, I:13-II:5, I:15-II:3 (inferred); N-terminus assumed) | 32 µg/mL (≈ 8.02 µM) | – | 64 µg/mL (≈ 16 µM) | – | – | – | –
CC(C)[C@H](NC(=O)[C@@H]1CSSC[C@H](NC(=O)[C@@H](NC(=O)[C@H](CCCNC(=N)N)NC(=O)[C@@H](N)CCCNC(=N)N)C(C)C)C(=O)N[C@@H](CCCNC(=N)N)C(=O)N[C@@H](CC(N)=O)C(=O)N[C@@H]([C@@H](C)O)C(=O)N[C@@H]([C@@H](C)O)C(=O)N[C@@H](CC(N)=O)C(=O)N[C@@H](CCCNC(=N)N)C(=O)N1)C(=O)N[C@@H](CCCNC(=N)N)C(=O)N[C@@H](CCCNC(=N)N)C(N)=O [F2-PH] (H-RRVCRNTTNRCVRR-NH2; disulfide 4-11; N-terminus assumed) | 15 µg/mL (≈ 8.39 µM) | 15 µg/mL (≈ 8.39 µM) | 29 µg/mL (≈ 16.2 µM) | 29 µg/mL (≈ 16.2 µM) | 29 µg/mL (≈ 16.2 µM) | 58 µg/mL (≈ 32.5 µM) | MIC [8]: 15 µg/mL (≈ 8.39 µM); MIC ([9]; murium): 15 µg/mL (≈ 8.39 µM); MIC [10]: 15 µg/mL (≈ 8.39 µM); MIC [11]: 29 µg/mL (≈ 16.2 µM)
